Experimental data from US11466044B2 (WAYNE STATE UNIVERSITY, priority 2017, dated 2022).
≈ marks a conversion by molar mass, not a printed value. Like-named read-outs stand apart in the source and are kept apart here.

Key:
[1] = system: Klebsiella pneumonia AG215; assay: MIC by broth microdilution, Klebsiella pneumonia; type: cell-based; conditions: Klebsiella pneumoniae; strain AG215 Klebsiella pneumonia; read-out: MIC AG215 K. pneumon
P aeruginosa = assay: MIC by broth microdilution, P aeruginosa isolates; type: cell-based, Pseudomonas aeruginosa; conditions: for MIC: strain AG220 Pseudomonas aeruginosa ATCC27853, read-out: MIC AG220 P. aerugin
[2] = system: Acinetobacter baumannii pittii AG225; assay: MIC by broth microdilution, Acinetobacter baumannii; type: cell-based; conditions: strain AG225 Acinetobacter baumannii pittii
E coli wild type = assay: MIC by broth microdilution, wild type E coli; type: cell-based; conditions: for MIC: Escherichia coli
[3] = system: Enterobacter cloacae AG290; assay: MIC by broth microdilution, Enterobacter cloacae; type: cell-based; conditions: strain AG290 Enterobacter cloacae; read-out: MIC AG290 E. cloacae
M. smegmatis SZ380 = assay: MIC by broth microdilution, M. smegmatis; conditions: for MIC: Mycolicibacterium smegmatis
MRSA = assay: MIC by broth microdilution, MRSA isolates; type: cell-based; conditions: Table 1 (Example 2)
[4] = system: wild type bacterial ribosomes; assay: in-vitro translation assay, bacterial ribosomes; type: biochemical; conditions: bacterial ribosome; Table 3 (Example 2); read-out: IC50 Bac
Description: (§1) The antiribosomal activity of these compounds was investigated with cell-free translation assays using both wild type bacterial ribosomes and hybrid ribosomes carrying eukaryotic decoding A sites enabling the prediction of selectivity.

[5] = system: cytosolic ribosome (human chimeric); type: biochemical; conditions: cytosolic; Table 3 (Example 2); read-out: IC50 Cyt
Description: as §1

[6] = system: mitochondrial ribosome (human chimeric); type: biochemical; conditions: mitochondrial; Table 3 (Example 2); read-out: IC50 Mit
Description: as §1

M. abscessus = assay: MIC by broth microdilution, M. abscessus; type: cell-based; conditions: for MIC: Mycobacteroides abscessus
[7] = system: E coli carrying specific resistance determinants; assay: MIC by broth microdilution, E coli carrying specific resistance determinants; type: cell-based; conditions: for MIC: Escherichia coli
[8] = ATCC25922, strain AG212 E. coli (ATCC25922), read-out: MIC AG212 E. coli

CCC(O)C1O[C@H](O[C@@H]2C(N)C[C@@H](N)C(O)[C@H]2O[C@@H]2O[C@H](CO)[C@H](O[C@H]3O[C@@H](CN)[C@@H](O)C(O)C3N)C2O)C(N)[C@@H](O)[C@@H]1O (some centres unmarked) [Compound 192]
MIC [1]: 2 mg/L (≈ 3.11 µM)
MIC (P aeruginosa): > 64 mg/L
MIC [2]: 8 mg/L (≈ 12.4 µM)
MIC (E coli wild type; [8]): 4 mg/L (≈ 6.21 µM)
MIC [3]: 2 to 4 mg/L (≈ 3.11 to 6.21 µM)

NCC1O[C@H](O[C@@H]2C(N)C[C@@H](N)C(O)[C@H]2O[C@@H]2O[C@H](CO)[C@H](F)C2O)[C@@H](N)C(O)[C@@H]1O (some centres unmarked) [Compound 093]
MIC [1]: 1 to 2 mg/L (≈ 2.19 to 4.38 µM)
MIC (M. smegmatis SZ380; SZ380, read-out: MIC SZ380 M. smegmatis, strain SZ380 Mycobacterium smegmatis): 8 mg/L (≈ 17.5 µM)
MIC (P aeruginosa): > 64 mg/L
MIC [2]: 16 mg/L (≈ 35.1 µM)
MIC (E coli wild type; ATCC25922, read-out: MIC AG212 E. coli, strain AG212 E. coli (ATCC25922)): 2 mg/L (≈ 4.38 µM)
MIC [3]: 2 mg/L (≈ 4.38 µM)

CC1CC(N)C2O[C@H](O[C@@H]3C(N)C[C@@H](N)C(O)[C@H]3O[C@@H]3O[C@H](CO)[C@H](O[C@H]4O[C@@H](CN)[C@@H](O)C(O)C4N)C3O)C(N)[C@@H](O)[C@@H]2O1 (stereo partly drawn) [Compound 150, 4-O-(2′,6′-Diamino-4′,8′-anhydro-2′,6′,7′,9′-tetradeoxy-D-erythro-α-D-gluco-nonapyranosyl)-5-O-(β-paramobiosyl)-2-deoxystreptamine.6AcOH]
MIC SZ380 M. smegmatis (M. smegmatis SZ380; strain SZ380 Mycobacterium smegmatis): 16 to 32 mg/L
MIC50 MRSA AG38 (MRSA; strain AG38): 128 mg/L (≈ 196 µM)
MIC50 MRSA AG39 (MRSA; strain AG39): 128 mg/L (≈ 196 µM)
MIC50 MRSA AG42 (MRSA; strain AG42): 128 mg/L (≈ 196 µM)
MIC50 MRSA AG44 (MRSA; strain AG44): 128 mg/L (≈ 196 µM)
IC50 [4]: 0.48 µM
MIC50 P aeruginosa AG31 (P aeruginosa; strain AG31, Table 1 (Example 2)): >128 mg/L
MIC50 P aeruginosa AG32 (P aeruginosa; strain AG32, Table 1 (Example 2)): >128 mg/L
MIC50 P aeruginosa AG33 (P aeruginosa; strain AG33, Table 1 (Example 2)): >128 mg/L
MIC50 P aeruginosa AG86 (P aeruginosa; strain AG86, Table 1 (Example 2)): >128 mg/L
IC50 [5]: 12 µM
IC50 [6]: 4.1 µM
MIC50 E coli BM13 (AG06) wt (E coli wild type; BM13 (AG06) wt, Table 2A (Example 2)): 64 to 128 mg/L
MIC WT (E coli wild type; WT, Table 3 (Example 2)): 64 to 128 mg/L
MIC50 E coli pH430 WT (E coli wild type; pH430 WT, Table 2B (Example 2)): 64-128 μg/ml
MIC50 E coli AG01 (E coli wild type; strain AG01, Table 1 (Example 2)): >128 mg/L
MIC50 E coli AG03 (E coli wild type; strain AG03, Table 1 (Example 2)): >128 mg/L
MIC50 E coli AG55 (E coli wild type; strain AG55, Table 1 (Example 2)): >128 mg/L

NCC1O[C@H](O[C@@H]2C(O)[C@H](O[C@@H]3C(O)[C@H](N)CC(N)[C@H]3O[C@H]3OC(CO)[C@@H](CCO)C(O)[C@@H]3N)O[C@@H]2CO)C(N)C(O)[C@@H]1O (some centres unmarked) [Compound 197]
MIC [1]: 1 mg/L (≈ 1.55 µM)
MIC (P aeruginosa): 32 mg/L (≈ 49.7 µM)
MIC [2]: 2 mg/L (≈ 3.11 µM)
MIC (E coli wild type; [8]): 2 to 4 mg/L (≈ 3.11 to 6.21 µM)
MIC [3]: 1 to 2 mg/L (≈ 1.55 to 3.11 µM)

NCC[C@H](O)C(=O)N[C@@H]1C[C@H](N)[C@@H](O[C@H]2O[C@H](CN)[C@@H](O)[C@H](O)[C@H]2O)[C@H](O)[C@H]1O[C@H]1O[C@H](CO)[C@@H](O)[C@H](N)[C@H]1O [AMK, reference compound]
MIC M. smegmatis SZ380 WT (M. smegmatis SZ380; Table 5 (Example 3)): 0.5 mg/L (≈ 0.854 µM)
MIC M. abscessus ATCC 19977 WT (M. abscessus; ATCC 19977 WT, Table 5 (Example 3)): 1 mg/L (≈ 1.71 µM)
MIC M. abscessus clinical isolate (M. abscessus; clinical isolate, Table 5 (Example 3)): 2 mg/L (≈ 3.42 µM)
MIC M. abscessus engineered Δeis2 (M. abscessus; engineered Δeis2, Table 5 (Example 3)): 0.125 to 0.25 mg/L
MIC E. coli AG106 AAC(2′)-Ia ([7]; AG106 AAC(2′)-Ia, Table 5 (Example 3)): 2 mg/L (≈ 3.42 µM)
MIC E. coli pGB2armA armA ([7]; pGB2armA armA, Table 5 (Example 3)): >128 μg/ml
MIC E. coli pH434 AAC(2′)-Ib ([7]; pH434 AAC(2′)-Ib, Table 5 (Example 3)): 2 μg/ml
MIC E. coli WT (E coli wild type; WT, Table 5 (Example 3)): 2 mg/L (≈ 3.42 µM)

CCNC1[C@@H](OC2C(N)CC(N)[C@@H](O)[C@H]2O[C@@H]2O[C@H](CO)[C@H](O)C2O)OC(CN)[C@@H](O)[C@@H]1O (some centres unmarked) [Compound 037]
MIC (M. smegmatis SZ380; SZ380, read-out: MIC M. smegmatis SZ380 WT, SZ380 WT, Table 5 (Example 3)): 64 mg/L (≈ 133 µM)
MIC (M. abscessus; ATCC19977, ATCC 19977 WT, Table 5 (Example 3), read-out: MIC M. abscessus ATCC 19977 WT): 128 mg/L (≈ 265 µM)
MIC (M. abscessus; read-out: MIC M. abscessus clinical isolate): > 128 mg/L
MIC (M. abscessus; read-out: MIC M. abscessus engineered Δeis2): 32 mg/L (≈ 66.3 µM)
MIC ([7]; read-out: MIC E. coli pGB2armA armA): 64 to 128 mg/L (≈ 133 to 265 µM)
MIC ([7]; read-out: MIC E. coli pH434 AAC(2′)-Ib): 32 mg/L (≈ 66.3 µM)
MIC (E coli wild type; WT, Table 5 (Example 3), read-out: MIC E. coli WT): 16 to 32 mg/L (≈ 33.2 to 66.3 µM)

CC(=O)O.NCC1OC(OC2C(CO)OC(OC3C(O)C(N)CC(N)C3OC3OC(CO)C(O)C(O)C3O)C2O)C(N)C(O)C1O (centres unmarked) [Compound 118, 2′-Deamino-2′-hydroxy-paromomycin acetate salt]
MIC M. smegmatis SZ380 WT (M. smegmatis SZ380; Table 5 (Example 3)): >128 mg/L
MIC E. coli WT (E coli wild type; WT, Table 5 (Example 3)): 32 mg/L

NC[C@@H]1O[C@H](O[C@@H]2C(O)[C@H](O[C@@H]3C(O)[C@H](N)CC(N)[C@H]3O[C@H]3OC4C(O)CCCO[C@H]4[C@H](O)C3N)O[C@@H]2CO)C(N)C(O)[C@@H]1O (some centres unmarked) [Compound 199]
MIC [1]: 32 mg/L (≈ 48.8 µM)
MIC (P aeruginosa): > 32 mg/L
MIC [2]: > 32 mg/L
MIC (E coli wild type; [8]): > 32 mg/L
MIC [3]: > 32 mg/L
